Results as given in ChEMBL document CHEMBL5727966, “Compositions and methods for treating disorders of circadian and diurnal rhythms using prokineticin 2 agonists and antagonists” (2020).

Experiment: Aequorin-Based Luminescent Assay : An aequorin-based luminescent assay for calcium mobilization was used to measure mobilization of intracellular Ca2+ (Bullock et al., Mol Pharmacol 65, 582-588, 2004). Chinese hamster ovary (CHO) cells stably expressing photoprotein aequorin and recombinant PKR1 or PKR2 were tested by this method. Briefly, the cells were charged in Opti-MEM™ (Invitrogen) containing 8 μM of coelenterazine cp at 37° C. for 2 hours. Cells were detached by brief trypsinization and maintained in Hank's Balanced Salt Solution (HBSS) plus 10 mM HEPES (pH7.5) and 0.1% BSA at about 5×10^5 cells/ml. Luminescence measurements were made using a Berthold luminometer.All compounds were diluted in HBSS plus 10 mM HEPES (pH7.5) and 0.1% BSA. To test the agonist activity, 100 μl of cells were injected into the tubes with 20 μl of compounds. For antagonist assays, 80 μl cells were incubated in the tubes with 20 μl different concentrations of antagonists at room temperature for 20 minutes, and then 100 μl of recombinant PK2 were injected. The IC50 obtained from the assays were then converted to Ki values using the formula: IC50/(1+[PK2]/EC50PK2).
Format: cell-based

## CC(C)CN(Cc1cc(Cl)c2c(c1)OCCCO2)C(=O)C1CN(Cc2cccc3nc[nH]c23)CCO1 (stereo unspecified)
  Ki: 8.4 nM
